# Source: patent US5187157A, “Peptide boronic acid inhibitors of trypsin-like proteases” (Du Pont Merck Pharmaceutical Company, priority 1988, dated 1993)
# Assays:
# normal rabbit plasma = assay: Thrombin times (TT), blood coagulation in vitro; assay type: biochemical; settings: thrombin 4 μ/ml
# Description: A mixture of 0.2 ml of normal rabbit plasma and 0.05 ml of buffer containing the inhibitor at 6 times the desired final concentration was warmed to 37° C. Clotting was initiated by addition of thrombin (0.05 ml at 6 times the final concentration). The thrombin used was purchased from Sigma Chemical Company (No. T-6634, activity 1190 NIH units per mg protein) and prepared in buffer. The buffer employed for both the inhibitor and the thrombin was 0.1 M Tris buffer (12.10 g/L), containing 0.154 M NaCl (8.84 g/L) and 2.5 mg/ml bovine serum albumin, pH 7.4. The clotting times, measured in seconds, were determined using a fibrometer. The effects of the inhibitor on blood clotting times compared with the blood clotting times of controls run in the absence of inhibitors, are shown in Table 6. Values represent the average of at least three determinations.
# rats = assay: Survival after thrombin infusion following oral dosing; assay type: in vivo; settings: 5 mg/kg orally in water; 500 units/kg thrombin infused thirty to sixty minutes later; water controls: all fourteen died
# Excerpt: Thirty to sixty minutes later, all rats received an infusion of 500 units/kg thrombin over a period of one minute. All fourteen rats given only water died within ten minutes of the thrombin infusion. In contrast only 8 out of 17 rats treated with the inhibitor-containing water died within ten minutes, and the remainder survived one hour, at which time they were euthanized.
# Male Lewis rats = assay: In Vivo Inhibition of Blood Coagulation Following Oral, Colonic and Rectal Administration; settings: mean for 3 rats
# Description: Male Lewis rats weighing between 300-350 g were anesthetized with sodium pentobarbitol (50 mg/kg, i.p.) and the jugular vein was cannulated using a silastic tubing attached to a polyethylene 50 tubing. The tubing was exteriorized at the back of the neck and attached to a syringe through a stop cock. […] The blood samples were then transferred into vacutainers containing citrate buffer. Also, after each collection the cannula was flushed with saline. The blood samples were then centrifuged immediately (2500 rpm for 15 min) and 0.2 ml of the plasma samples were used for clotting time measurements. The clotting time measurements were carried out using a fibrometer as follows. First, plasma (0.2 ml) was placed in a fibro cup, and pH 7.4 Tris buffer (50 microliters) was added. The plasma buffer solution was incubated at 37° C. for 1 min, 50 microters of a 24 μ/ml thrombin solution in Tris buffer was then added, and clotting time in seconds was measured. When clotting time exceeded 300 seconds, it is reported below as >300.
# The jugular vein-cannulated rats were allowed to recover from anesthesia before they were dosed orally. The protease inhibitor Ac-(D)Phe-Pro-boroArg--OH aqueous solution, consisting of 3 mg of inhibitor per kg weight of rat (approximately 1 mg/rat) in a volume of 0.75 ml of water per kg of rat, was administered by gavage.
# A 3 cm incision was made in the abdomen of the jugular vein-cannulated rats while they were still under anesthesia. The colon was located and was tied off at both the beginning and the end. The protease inhibitor Ac-(D)Phe-Pro-boroArg--OH aqueous solution, consisting of 3 mg of inhibitor per kg weight of rat (approximately 1 mg/rat) in a volume of 1 ml of water per kg weight of rat, was injected at the beginning into the colon cavity. The incision was closed using wound clips.
# The procedure for rectal administration in the jugular vein-cannulated rats was as described by Kamiya et al., J. Pharm. Sci., 71: 621 (1982). In brief, a device was made consisting of a 0.89 cm and a 0.71 cm silicon rubber septa connected by a 2 cm length of wire. This device was inserted into the rectum of the rat, the large septum first, and glued to the annus using suitable glue. Dosing was accomplished by injection through the exposed septum. The rectal dose was 3 mg of the protease inhibitor Ac-(D)Phe-Pro-boroArg--OH per kg weight of rat (approximately 1 mg/rat) in a volume of 0.6 ml of water per kg of rat.
# Sprague Dawley CD Rats = assay: Inhibition of Blood Coagulation Following In Vivo Oral Dosing (thrombin times of plasma)
# Description: Male rats (Sprague Dawley CD Rats, 130-140 g, supplied by Charles River Labs, Inc., Wilmington, MA) were anesthetized with sodium pentobarbital (50 mg/kg, i.p.). A midline incision was made on the ventral surface of the neck, and a polyethylene catheter was inserted in one of the carotid arteries and exteriorized at the back of the neck. After recovery from anesthesia, control blood samples were taken from the carotid artery catheter, anticoagulated with sodium citrate, and centrifuged (2000×g, 10 minutes). Plasma was transferred to plastic tubes and kept on ice until it was assayed. Thrombin times were measured using a fibrometer, as described in Examples 125-127.
# The vehicle employed was 5% dimethylsulfoxide in saline. Blood samples were taken at various times after oral dosing and assayed as described above. When clotting time exceeded 300 seconds, it is reported below as >300.
# chymotrypsin = chymotrypsin (Bos taurus, UniProt P00766); settings: literature; cited from earlier work
smiles,measurement,setting,value
"CC(=O)N[C@H](Cc1ccccc1)C(=O)N1CCC[C@H]1C(=O)N[C@@H](CCCN=C(N)N)B(O)O.Cl [Ac-(D)Phe-Pro-boroArg-OH, Ac-(D)Phe-Pro-boroArg-OH.HCl]",Thrombin Times,"normal rabbit plasma; inhibitor 50 nM, mean ± standard deviation",32.7 ± 0.8 s
same,Thrombin Times,"normal rabbit plasma; inhibitor 100 nM, mean ± standard deviation",62.4 ± 7.2 s
same,Thrombin Times,"normal rabbit plasma; inhibitor 150 nM, terminated at 300 seconds",> 300 s
same,rats died within ten minutes of the thrombin infusion,rats,8 out of 17
same,Clotting Time,"Male Lewis rats; colonic 3 mg/kg, 0.0 hr",59.4 s
same,Clotting Time,"Male Lewis rats; colonic 3 mg/kg, 0.5 hr",> 300 s
same,Clotting Time,"Male Lewis rats; colonic 3 mg/kg, 1.0 hr",> 300 s
same,Clotting Time,"Male Lewis rats; colonic 3 mg/kg, 2.0 hr",> 300 s
same,Clotting Time,"Male Lewis rats; colonic 3 mg/kg, 4.0 hr",> 300 s
same,Clotting Time,"Male Lewis rats; colonic 3 mg/kg, 5.0 hr",> 300 s
same,Clotting Time,"Male Lewis rats; oral 3 mg/kg, 0.00 hr",57.3 s
same,Clotting Time,"Male Lewis rats; oral 3 mg/kg, 0.25 hr",> 300 s
same,Clotting Time,"Male Lewis rats; oral 3 mg/kg, 0.50 hr",> 300 s
same,Clotting Time,"Male Lewis rats; oral 3 mg/kg, 1.00 hr",> 300 s
same,Clotting Time,"Male Lewis rats; oral 3 mg/kg, 2.00 hr",> 300 s
same,Clotting Time,"Male Lewis rats; oral 3 mg/kg, 3.00 hr",> 300 s
same,Clotting Time,"Male Lewis rats; oral 3 mg/kg, 4.00 hr",> 300 s
same,Clotting Time,"Male Lewis rats; rectal 3 mg/kg, 0 hr",66.4 s
same,Clotting Time,"Male Lewis rats; rectal 3 mg/kg, 0.25 hr",> 300 s
same,Clotting Time,"Male Lewis rats; rectal 3 mg/kg, 0.5 hr",> 300 s
same,Clotting Time,"Male Lewis rats; rectal 3 mg/kg, 1.0 hr",> 300 s
same,Clotting Time,"Male Lewis rats; rectal 3 mg/kg, 2.0 hr",> 300 s
same,Clotting Time,"Male Lewis rats; rectal 3 mg/kg, 4.0 hr",> 300 s
same,clotting times (thrombin times),"Sprague Dawley CD Rats; oral gavage 1 mg, 1 hr",> 300 s
same,clotting times (thrombin times),"Sprague Dawley CD Rats; oral gavage 1 mg, 2 hr",> 300 s
same,clotting times (thrombin times),"Sprague Dawley CD Rats; oral gavage 1 mg, 3 hr",> 300 s
same,clotting times (thrombin times),"Sprague Dawley CD Rats; oral gavage 1 mg, 4 hr, mean ± standard deviation",47 ± 4 s
same,clotting times (thrombin times),"Sprague Dawley CD Rats; oral gavage 1 mg, 6 hr, mean ± standard deviation",46 ± 3 s
same,clotting times (thrombin times),"Sprague Dawley CD Rats; oral gavage 1 mg, .5 hr",> 300 s
same,clotting times (thrombin times),"Sprague Dawley CD Rats; oral gavage 2 mg, 4 hr, mean ± standard deviation",54 ± 29 s
same,clotting times (thrombin times),"Sprague Dawley CD Rats; oral gavage 2 mg, 6 hr, mean ± standard deviation",44 ± 4 s
same,clotting times (thrombin times),"Sprague Dawley CD Rats; oral gavage 2 mg, .5 hr",> 300 s
same,clotting times (thrombin times),"Sprague Dawley CD Rats; oral gavage 10 mg, 1 hr",> 300 s
same,clotting times (thrombin times),"Sprague Dawley CD Rats; oral gavage 10 mg, 2 hr",> 300 s
same,clotting times (thrombin times),"Sprague Dawley CD Rats; oral gavage 10 mg, 3 hr",> 300 s
same,clotting times (thrombin times),"Sprague Dawley CD Rats; oral gavage 10 mg, .5 hr",> 300 s
CC(=O)N[C@@H](Cc1ccccc1)B(O)O [(R)-1-acetamido-2-phenylethane boronic acid],Ki,chymotrypsin,4 µM
